compound: COc1cccc2cc(-c3nc([C@H]4CC[C@H](C(=O)O)CC4)n4ncnc(N)c34)[nH]c12 [OSI-027] + CS(=O)(=O)CCNCc1ccc(-c2ccc3ncnc(Nc4ccc(OCc5cccc(F)c5)c(Cl)c4)c3c2)o1 [Lapatinib] (partner 2 µM); assay: relative viability (nuclei count vs DMSO), 5 days (fraction); higher = more cells survive; conditions: first compound 0.01 µM
In short: (§1)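 Lung cancer cell lines were seeded in 1536-well plates and dosed by pin tool the next day, with either a single drug or a fixed anchor-drug dose combined with five library-drug doses (not always all listed) spaced in √10 steps. Five days later, one step fixed the cells and stained their nuclei (final 0.05% Triton X-100, 1% formaldehyde, 1 ug/ml Hoechst), and nuclei were counted on 4× images. Relative viability is the nuclei count in treated wells divided by the count in vehicle wells, and each value is the median of duplicate plates.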

Row | Cell Line | relative viability
1 | NCI-H1666 | 0.521
2 | RERF-LC-KJ | 0.778
3 | NCI-H650 | 0.838

same assay, conditions: first compound 0.03162 µM

Row | Cell Line | relative viability
4 | A-427 | 1.16
5 | NCI-H2009 | 0.963
6 | ABC-1 | 0.991
7 | EKVX | 0.189
8 | NCI-H2087 | 1.06
9 | NCI-H1734 | 1.12
10 | LU99A | 0.921
11 | NCI-H460 | 0.716
12 | NCI-H2170 | 0.283
13 | SK-LU-1 | 0.817
14 | COR-L23 | 1.2
15 | HCC-15 | 0.849
16 | NCI-H1944 | 0.875
17 | EMC-BAC-2 | 0.874
18 | NCI-H1395 | 0.98
19 | LC-2-ad | 0.981
20 | NCI-H2085 | 0.799

Row | Cell Line | relative viability
21 | NCI-H727 | 0.875
22 | NCI-H647 | 1.02
23 | HARA | 0.577
24 | NCI-H3122 | 1.1
25 | NCI-H358 | 0.475
26 | CAL-12T | 0.589
27 | COR-L 105 | 0.356
28 | LCLC-97TM1 | 1.18
29 | NCI-H520 | 0.835
30 | NCI-H2228 | 1.21
31 | NCI-H23 | 1.13
32 | HCC-827 | 0.173
33 | NCI-H2347 | 0.921
34 | LXF-289 | 0.885
35 | NCI-H1666 | 0.709
36 | RERF-LC-KJ | 0.843
37 | NCI-H650 | 0.883

same assay, conditions: first compound 0.1 µM

Row | Cell Line | relative viability
38 | A-427 | 0.927
39 | NCI-H2009 | 0.848
40 | ABC-1 | 1.04
41 | EKVX | 0.201
42 | NCI-H2087 | 0.873
43 | NCI-H1734 | 0.935
44 | LU99A | 0.789
45 | NCI-H460 | 0.814
46 | NCI-H2170 | 0.257
47 | SK-LU-1 | 0.656
48 | COR-L23 | 0.744
49 | HCC-15 | 0.819
50 | NCI-H1944 | 0.799
51 | EMC-BAC-2 | 0.838
52 | NCI-H1395 | 0.829
53 | LC-2-ad | 0.978
54 | NCI-H2085 | 0.565

Row | Cell Line | relative viability
55 | NCI-H727 | 0.692
56 | NCI-H647 | 1.17
57 | HARA | 0.549
58 | NCI-H3122 | 1.14
59 | NCI-H358 | 0.394
60 | CAL-12T | 0.499
61 | COR-L 105 | 0.336
62 | LCLC-97TM1 | 0.598
63 | NCI-H520 | 0.666
64 | NCI-H2228 | 0.958
65 | NCI-H23 | 1.06
66 | HCC-827 | 0.205
67 | NCI-H2347 | 0.885
68 | LXF-289 | 0.926
69 | NCI-H1666 | 0.554
70 | RERF-LC-KJ | 0.78
71 | NCI-H650 | 0.516

same assay, conditions: first compound 0.3162 µM

Row | Cell Line | relative viability
72 | A-427 | 0.768
73 | NCI-H2009 | 0.839
74 | ABC-1 | 0.97
75 | EKVX | 0.16
76 | NCI-H2087 | 0.951
77 | NCI-H1734 | 0.781
78 | LU99A | 0.309
79 | NCI-H460 | 0.536
80 | NCI-H2170 | 0.27
81 | SK-LU-1 | 0.519
82 | COR-L23 | 1
83 | HCC-15 | 0.763
84 | NCI-H1944 | 0.631
85 | EMC-BAC-2 | 0.7
86 | NCI-H1395 | 0.701
87 | LC-2-ad | 1.1
88 | NCI-H2085 | 0.506

Row | Cell Line | relative viability
89 | NCI-H727 | 0.666
90 | NCI-H647 | 0.843
91 | HARA | 0.418
92 | NCI-H3122 | 1.05
93 | NCI-H358 | 0.389
94 | CAL-12T | 0.375
95 | COR-L 105 | 0.297
96 | LCLC-97TM1 | 0.376
97 | NCI-H520 | 0.408
98 | NCI-H23 | 0.618
99 | HCC-827 | 0.185
100 | NCI-H2347 | 0.806
101 | LXF-289 | 0.9
102 | NCI-H1666 | 0.33
103 | RERF-LC-KJ | 0.589
104 | NCI-H650 | 0.707

same assay, conditions: first compound 1 µM

Row | Cell Line | relative viability
105 | A-427 | 0.661
106 | NCI-H2009 | 0.546
107 | ABC-1 | 0.553
108 | EKVX | 0.153
109 | NCI-H2087 | 0.769
110 | NCI-H1734 | 0.489
111 | LU99A | 0.218
112 | NCI-H460 | 0.102
113 | NCI-H2170 | 0.254
114 | SK-LU-1 | 0.29
115 | COR-L23 | 0.34
116 | HCC-15 | 0.529
117 | NCI-H1944 | 0.444
118 | EMC-BAC-2 | 0.516
119 | NCI-H1395 | 0.735
120 | LC-2-ad | 0.709
121 | NCI-H2085 | 0.434

Row | Cell Line | relative viability
122 | NCI-H727 | 0.577
123 | NCI-H647 | 0.443
124 | HARA | 0.405
125 | NCI-H3122 | 0.808
126 | NCI-H358 | 0.309
127 | CAL-12T | 0.418
128 | COR-L 105 | 0.295
129 | LCLC-97TM1 | 0.222
130 | NCI-H520 | 0.235
131 | NCI-H2228 | 0.539
132 | NCI-H23 | 0.291
133 | HCC-827 | 0.176
134 | NCI-H2347 | 0.516
135 | LXF-289 | 0.74
136 | NCI-H1666 | 0.27
137 | RERF-LC-KJ | 0.376
138 | NCI-H650 | 0.39

compound: COc1cccc2cc(-c3nc([C@H]4CC[C@H](C(=O)O)CC4)n4ncnc(N)c34)[nH]c12 [OSI-027] + CCNC(=O)c1noc(-c2cc(C(C)C)c(O)cc2O)c1-c1ccc(CN2CCOCC2)cc1 [Luminespib] (partner 0.01 µM); assay: as above; conditions: first compound 0.01 µM
In short: as §1

Row | Cell Line | relative viability
139 | A-427 | 0.92
140 | NCI-H2009 | 1.08
141 | EKVX | 0.743
142 | NCI-H2087 | 0.143
143 | NCI-H1734 | 0.174
144 | LU99A | 0.25
145 | NCI-H460 | 0.0335
146 | NCI-H2170 | 0.844
147 | SK-LU-1 | 0.188
148 | COR-L23 | 0.851
149 | HCC-15 | 0.347
150 | NCI-H1944 | 0.856
151 | EMC-BAC-2 | 1.24
152 | NCI-H1395 | 0.717
153 | LC-2-ad | 1.05
154 | NCI-H2085 | 0.647
155 | NCI-H727 | 0.444
156 | NCI-H647 | 0.153
157 | HARA | 0.683
158 | NCI-H3122 | 0.0994

Source: the supplement of paper PMC10307832
